We go through nine compounds from ChEMBL document CHEMBL1130668, “Synthesis and evaluation of paclitaxel C7 derivatives: solution phase synthesis of combinatorial libraries” (1998).

SMILES strings stand for the structures. Active and inactive are the calls of the source. No cut-off for these calls is given here.

Experiment [1] concerns MCF7. Description: Cytotoxicity activity was measured against human breast cancer cell line MCF-7 with respect to ED50 of paclitaxel (2 nM); IA inactive. The experiment is classed as functional, cell-based.
The test system of experiment [2] is MCF7. Description: Cytotoxicity activity was measured against resistant human breast cancer cell line MCF-7 with respect to ED50 of paclitaxel (2200-3700 nM); IA inactive. The experiment is classed as functional, cell-based.
Experiment [3] can be described thus: Ratio in tubulin to that of paclitaxel (0.3 uM) in microtubule assembly assay; IA inactive. It counts as functional.
In experiment [4] the test system is MCF7. Description: Cytotoxicity activity was measured against human breast cancer cell line MCF-7; Did not inhibit proliferation at maximum concentration tested. The experiment is classed as functional. The following applies: read-out: ED50 (the source's name).
The test system of experiment [5] is MCF7. Description: Cytotoxicity activity was measured against resistant human breast cancer cell line MCF-7; Did not inhibit proliferation at maximum concentration tested. The following applies: read-out: ED50 (the source's name). The experiment is classed as functional.
The subject of experiment [6] is MCF7. Description: Effect on microtubule assembly in MCF-7 cells, compared to paclitaxel (0.3 uM), given as ratio of respective ED50. It counts as functional, Homo sapiens.

On to `CC(=O)O[C@H]1C(=O)[C@]2(C)[C@@H](OC(=O)CCc3ccccc3)C[C@H]3OC[C@@]3(OC(C)=O)[C@H]2[C@H](OC(=O)c2ccccc2)[C@]2(O)C[C@H](OC(=O)[C@H](O)[C@@H](NC(=O)c3ccccc3)c3ccccc3)C(C)=C1C2(C)C`, for which the ED50 result with MCF7 [1] and in the experiment with MCF7 [2] was “inactive” throughout. Moreover, the Ratio entry in experiment [3] was “inactive”.

Turning to `CC(=O)O[C@H]1C(=O)[C@]2(C)[C@@H](OC(=O)CCCNC(=O)OC(C)(C)C)C[C@H]3OC[C@@]3(OC(C)=O)[C@H]2[C@H](OC(=O)c2ccccc2)[C@]2(O)C[C@H](OC(=O)[C@H](O)[C@@H](NC(=O)c3ccccc3)c3ccccc3)C(C)=C1C2(C)C`, the EC50 with MCF7 [4] is greater than 80 nM; in the experiment with MCF7 [5] it was greater than 5000 nM. Besides, the Ratio with MCF7 [6] came to 0.7.

For `CC(=O)O[C@H]1C(=O)[C@]2(C)[C@@H](OC(=O)c3ccc(Cl)c(Cl)c3)C[C@H]3OC[C@@]3(OC(C)=O)[C@H]2[C@H](OC(=O)c2ccccc2)[C@]2(O)C[C@H](OC(=O)[C@H](O)[C@@H](NC(=O)c3ccccc3)c3ccccc3)C(C)=C1C2(C)C`, the EC50 is greater than 80 nM in the experiment with MCF7 [4] and greater than 5000 nM in the experiment on MCF7 [5]. The Ratio in the experiment with MCF7 [6] was 24.

Consider `CC(=O)O[C@H]1C(=O)[C@]2(C)[C@@H](OC(=O)c3cccnc3C)C[C@H]3OC[C@@]3(OC(C)=O)[C@H]2[C@H](OC(=O)c2ccccc2)[C@]2(O)C[C@H](OC(=O)[C@H](O)[C@@H](NC(=O)c3ccccc3)c3ccccc3)C(C)=C1C2(C)C`, for which the figures for the EC50 with MCF7 [4] and in the experiment with MCF7 [5] were greater than 80 nM and greater than 5000 nM, respectively. Moreover, the Ratio in the experiment with MCF7 [6] worked out at 32.

As for `CC(=O)O[C@H]1C(=O)[C@]2(C)[C@@H](OC(=O)c3ccc4ccccc4c3)C[C@H]3OC[C@@]3(OC(C)=O)[C@H]2[C@H](OC(=O)c2ccccc2)[C@]2(O)C[C@H](OC(=O)[C@H](O)[C@@H](NC(=O)c3ccccc3)c3ccccc3)C(C)=C1C2(C)C`, the EC50 with MCF7 [4] is greater than 80 nM; with MCF7 [5], greater than 5000 nM. The Ratio in the experiment on MCF7 [6] came to 60.

With `CC(=O)O[C@H]1C(=O)[C@]2(C)[C@@H](OC(=O)c3cnc(Cl)c(Cl)c3)C[C@H]3OC[C@@]3(OC(C)=O)[C@H]2[C@H](OC(=O)c2ccccc2)[C@]2(O)C[C@H](OC(=O)[C@H](O)[C@@H](NC(=O)c3ccccc3)c3ccccc3)C(C)=C1C2(C)C`, the ED50 entry in the experiment with MCF7 [1] and in the experiment on MCF7 [2] was “inactive” throughout. In addition, in experiment [3], the Ratio result is “inactive”.

On to `CCCCCCCCCCCCC(=O)O[C@H]1C[C@H]2OC[C@@]2(OC(C)=O)[C@H]2[C@H](OC(=O)c3ccccc3)[C@]3(O)C[C@H](OC(=O)[C@H](O)[C@@H](NC(=O)c4ccccc4)c4ccccc4)C(C)=C([C@@H](OC(C)=O)C(=O)[C@]12C)C3(C)C`, for which the ED50 result with MCF7 [1] and in the experiment on MCF7 [2] was “inactive” in each case. Also, in experiment [3], the Ratio entry is “inactive”.

Take `C/C=C/C(=O)O[C@H]1C[C@H]2OC[C@@]2(OC(C)=O)[C@H]2[C@H](OC(=O)c3ccccc3)[C@]3(O)C[C@H](OC(=O)[C@H](O)[C@@H](NC(=O)c4ccccc4)c4ccccc4)C(C)=C([C@@H](OC(C)=O)C(=O)[C@]12C)C3(C)C` [PACLITAXEL C7 CROTONIC ACID ESTER]: the EC50 was greater than 80 nM in the experiment on MCF7 [4] and greater than 5000 nM in the experiment with MCF7 [5]. The Ratio in the experiment with MCF7 [6] was found to be 6.7.

For the compound `CC(=O)O[C@H]1C(=O)[C@]2(C)[C@@H](OC(=O)/C=C/Cl)C[C@H]3OC[C@@]3(OC(C)=O)[C@H]2[C@H](OC(=O)c2ccccc2)[C@]2(O)C[C@H](OC(=O)[C@H](O)[C@@H](NC(=O)c3ccccc3)c3ccccc3)C(C)=C1C2(C)C`, the EC50 in the experiment with MCF7 [4] was greater than 80 nM; in the experiment with MCF7 [5], greater than 5000 nM. For the same compound, the Ratio with MCF7 [6] was 5.3.
